# What was measured:
# [1] = system: Penicilium italicum; assay: In vitro antimicrobial activity test, colony diameter on PDA plate, Penicilium italicum
# [2] = system: Septoria tritici; assay: In vitro antimicrobial activity test, colony diameter on PDA plate, Septoria tritici; settings: for Fungal growth inhibition rate (%) Measured value: 25° C., 14 days
# [3] = system: Microdochium nivale; assay: In vitro antimicrobial activity test, colony diameter on PDA plate, Microdochium nivale
# [4] = system: Phaeosphaeria nodorum; assay: In vitro antimicrobial activity test, colony diameter on PDA plate, Phaeosphaeria nodorum
# [5] = system: Fusarium graminearum; assay: microbe, parasite or virus in culture; format: cell-based
# [6] = 72 h, read-out: Fungal growth inhibition rate (%) Measured value
# [7] = Zymoseptoria tritici, 336 h, read-out: Fungal growth inhibition rate (%) Measured value
# [8] = Microdochium nivale, 72 h, read-out: Fungal growth inhibition rate (%) Measured value
# [9] = Parastagonospora nodorum, 168 h, read-out: Fungal growth inhibition rate (%) Measured value
# [10] = Fusarium graminearum, 72 h, read-out: Fungal growth inhibition rate (%) Measured value
structure (smiles),measurement,setting,value
"CC(C)(C)C(O)(CCc1ccc(Cl)cc1)Cn1cncn1 (stereo not drawn) [Tebuconazole, tebuconazole]",inhibition at 0.04 ppm,[1]; [6],3%
same,inhibition at 0.16 ppm,[1]; [6],30%
same,inhibition at 0.63 ppm,[1]; [6],68%
same,inhibition at 2.5 ppm,[1]; [6],87%
same,inhibition at 10 ppm,[1]; [6],100%
"CC(Cc1ccc(C(C)(C)C)cc1)CN1C[C@@H](C)O[C@@H](C)C1 (stereo partly drawn) [Fenpropimorph, fenpropimorph]",inhibition at 0.04 ppm,[2]; [7],16%
same,inhibition at 0.16 ppm,[2]; [7],21%
same,inhibition at 0.63 ppm,[2]; [7],23%
same,inhibition at 2.5 ppm,[2]; [7],42%
same,inhibition at 10 ppm,[2]; [7],45%
"CC1(C)CCC(Cc2ccc(Cl)cc2)C1(O)Cn1cncn1 (stereo not drawn) [Metconazole, metconazole]",inhibition at 0.01 ppm,[2]; [7],0%
same,inhibition at 0.039 ppm,[2]; [7],0%
same,inhibition at 0.156 ppm,[2]; [7],11%
same,inhibition at 0.625 ppm,[2]; [7],56%
same,inhibition at 2.5 ppm,[2]; [7],98%
"OC(Cc1ccccc1Cl)(Cn1nc[nH]c1=S)C1(Cl)CC1 (stereo not drawn) [Prothioconazole, prothioconazole]",inhibition at 0.01 ppm,[2]; [7],0%
same,inhibition at 0.039 ppm,[2]; [7],10%
same,inhibition at 0.156 ppm,[2]; [7],21%
same,inhibition at 0.625 ppm,[2]; [7],51%
same,inhibition at 2.5 ppm,[2]; [7],100%
"CCCC1COC(Cn2cncn2)(c2ccc(Cl)cc2Cl)O1 (stereo not drawn) [Propiconazole, propiconazole]",inhibition at 0.156 ppm,[3]; [8],0%
same,inhibition at 0.625 ppm,[3]; [8],45%
same,inhibition at 2.5 ppm,[3]; [8],76%
"CC(Cc1ccc(C(C)(C)C)cc1)CN1CCCCC1 (stereo not drawn) [Fenpropidine, fenpropidine]",Fungal growth inhibition rate (%) Measured value,"[2]; Test Example 8, fenpropidine 0.04 ppm alone",0%
same,Fungal growth inhibition rate (%) Measured value,"[2]; Test Example 8, fenpropidine 0.16 ppm alone",0%
same,Fungal growth inhibition rate (%) Measured value,"[2]; Test Example 8, fenpropidine 0.63 ppm alone",40%
same,Fungal growth inhibition rate (%) Measured value,"[2]; Test Example 8, fenpropidine 2.50 ppm alone",38%
same,Fungal growth inhibition rate (%) Measured value,"[2]; Test Example 8, fenpropidine 10.00 ppm alone",40%
"CC(C)C1CCC(Cc2ccc(Cl)cc2)C1(O)Cn1cncn1 (stereo not drawn) [Ipconazole, ipconazole]",inhibition at 0.01 ppm,[4]; [9],20%
same,inhibition at 0.04 ppm,[4]; [9],31%
same,inhibition at 0.16 ppm,[4]; [9],62%
same,inhibition at 0.63 ppm,[4]; [9],76%
"COC(=O)C1(C)CCC(Cc2ccc(Cl)cc2)C1(O)Cn1cncn1 (stereo not drawn) [Compound (1), methyl 3-(4-chlorobenzyl)-2-hydroxy-1-methyl-2-(1H-1,2,4-triazole-1-ylmethyl)cyclopentane carbonate]",Fungal growth inhibition rate (%) Measured value,"[5]; Test Example 3, compound (1) 1.25 ppm alone, 25° C., 3 days",93%
same,Fungal growth inhibition rate (%) Measured value,"[2]; Test Example 1, compound (1) 0.005 ppm alone",35%
same,Fungal growth inhibition rate (%) Measured value,"[2]; Test Example 2, compound (1) 0.02 ppm alone",3%
same,Fungal growth inhibition rate (%) Measured value,"[2]; Test Example 7, compound (1) 1.25 ppm alone",70%
same,Fungal growth inhibition rate (%) Measured value,"[2]; Test Example 8, compound (1) 1.25 ppm alone",77%
same,Fungal growth inhibition rate (%) Measured value,"[3]; Test Example 4, compound (1) 0.313 ppm alone, 25° C., 3 days",26%
same,Fungal growth inhibition rate (%) Measured value,"[1]; Test Example 5, compound (1) 1.25 ppm alone, 25° C., 3 days",83%
same,Fungal growth inhibition rate (%) Measured value,"[4]; Test Example 6, compound (1) 1.25 ppm alone, 25° C., seven days",89%
"Fc1ccc([C@]2(Cn3cncn3)O[C@H]2c2ccccc2Cl)cc1 (racemic) [Epoxiconazole, epoxiconazole]",inhibition at 0.01 ppm,[5]; [10],22%
same,inhibition at 0.04 ppm,[5]; [10],27%
same,inhibition at 0.16 ppm,[5]; [10],39%
same,inhibition at 0.63 ppm,[5]; [10],57%
same,inhibition at 2.5 ppm,[5]; [10],88%
